# Assay results taken from patent US11198687B2, “Heteroaryl allosteric modulators of nicotinic acetylcholine receptors” (Merck Sharp & Dohme Corp., priority 2017, dated 2021).
# Where two headings read alike, the source gives them in different places.
# Molecular target: human α7 nAChR (Homo sapiens, UniProt P36544)
# Assay: Automated patch-clamp electrophysiology functional assay (Assay A)
# Type: cell-based
# Settings: IonFlux HT whole-cell population patch, HEK cell line stably expressing human RIC-3 and human α7, 40 μM acetylcholine
# Description: The α7 nAChR positive allosteric modulator (PAM) activity of the present compounds may be tested using assays known in the art. […] The assay was performed using the IonFlux HT in a whole-cell, population patch configuration. See Golden et al. Assay Drug Dev. Technol. (2011) 9:608-619. The compounds were assessed for their ability to modulate the function of the human α7 nAChR stably expressed in a HEK cell line both in the presence, and in the absence of the natural α7 agonist acetylcholine. By performing a series of such measurements at different concentrations, the effective concentration of the α7 nAChR PAMs (EC50) was determined. See Spencer et al. Assay Drug Dev. Technol. (2012) 10:313-324.
# Direct activation of α7 (agonism), and potentiation of acetylcholine-evoked α7 currents was determined as follows:
# Automated Patch-Clamp Electrophysiology Functional Assay (Assay A)
# Automated patch-clamp electrophysiology was performed using the IonFlux HT (Fluxion Biosciences Inc., San Francisco, Calif.) in the whole-cell, population patch configuration. Test compounds were assessed for their ability to modulate the function of the α7 nicotinic acetylcholine receptor both in the presence, and in the absence of the natural α7 agonist acetylcholine. A HEK cell line stably expressing both human RIC-3 and human α7 (PrecisION hnAChR α7/RIC-3, Eurofins Pharma, St. Charles, Mo.) was cultured in 175 cm^2 triple-layer tissue culture flasks to no more than 90% confluency in DMEM/F-12 growth media supplemented with 10% heat-inactivated fetal bovine serum, 1% non-essential amino acids, 0.625 μg/mL Puromycin, and 400 μg/mL Geneticin. Immediately prior to assay, cells were detached by first aspirating growth media, rinsing with Dulbecco's phosphate buffered saline, and then adding 10 mL of Accutase (Innovative Cell Technologies, San Diego, Calif.) to the flask and then incubating at 37° C. for 5 minutes. Detached cells were then recovered by the addition of 40 mL of CHO-serum-free media supplemented with 25 mM HEPES, and rocked gently in a 50 mL conical tube for 20 minutes prior to patch-clamp assay. […] The cell suspension was added to the cell inlet wells on an IonFlux HT population patch plate which had previously been rinsed and primed with deionized H2O. Test compounds were serially diluted in DMSO and then resuspended to the final test concentration in external recording solution, with, or without 40 μM acetylcholine added to the external recording solution; test compounds were then transferred to the lonFlux HT population patch plate. Internal recording solution (110 mM TrisPO4, 28 mM TrisBase, 0.1 mM CaCl2, 2 mM MgCl2, 11 mM EGTA, 4 mM MgATP) was added to the internal recording solution inlet wells on the IonFlux HT patch plate previously loaded with cells and test compounds, and the plate loaded into the IonFlux HT instrument. A protocol was executed on the IonFlux HT to trap the cells, break into the cells, and establish the whole-cell recording configuration; cells were voltage-clamped at a holding potential of −60 mV for the duration of the experiment, all experiments were conducted at room temperature, and the IonFlux HT injection pressure was 8 psi for solution applications. Upon establishing the whole-cell configuration, external recording solution was perfused into the recording chambers for 120 seconds and then 40 μM acetylcholine was applied for 1 second and immediately washed off with external recording solution for 60 seconds. The 40 μM acetylcholine-evoked α7 current served as the current response to which subsequent test compound effects, in the presence, or in the absence of 40 μM acetylcholine would be quantified relative to. Next, test compounds were evaluated at multiple concentrations for their ability to induce, or modulate α7 current responses; three concentrations of test compound were evaluated in ascending dose fashion per recording.
# human α7 nAChR, sequence (P36544 23-502): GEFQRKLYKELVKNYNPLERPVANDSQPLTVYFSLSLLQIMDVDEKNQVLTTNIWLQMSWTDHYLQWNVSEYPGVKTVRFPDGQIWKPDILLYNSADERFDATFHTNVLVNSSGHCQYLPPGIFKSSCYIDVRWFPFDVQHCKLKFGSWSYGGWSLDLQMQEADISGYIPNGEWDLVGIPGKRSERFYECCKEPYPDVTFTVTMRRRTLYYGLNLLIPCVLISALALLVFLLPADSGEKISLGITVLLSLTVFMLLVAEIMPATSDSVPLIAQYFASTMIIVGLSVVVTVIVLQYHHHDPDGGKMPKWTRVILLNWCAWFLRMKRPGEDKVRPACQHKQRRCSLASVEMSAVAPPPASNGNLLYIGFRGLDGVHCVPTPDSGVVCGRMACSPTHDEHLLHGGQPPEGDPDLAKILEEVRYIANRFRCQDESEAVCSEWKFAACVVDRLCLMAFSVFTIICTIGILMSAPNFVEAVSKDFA
Molecule,EC50 (read-out: α7 nAChR EC50) [nM],EC50 (read-out: α7 nAChR Potency) [nM]
"6-[trans-3-(1,3-Benzoxazol-2-yl)-2,2-dimethylcyclopropyl]pyridine-3-sulfonamide [Example G1]",900,500 to 5000
"CC1(C)[C@@H](c2ccc(S(N)(=O)=O)nc2)[C@@H]1c1noc(-c2c(F)ccc(F)c2F)n1 (racemic) [Example C1, 5-{trans-2,2-Dimethyl-3-[5-(2,3,6-trifluorophenyl)-1,2,4-oxadiazol-3-yl]cyclopropyl}pyridine-2-sulfonamide]",580,500 to 5000
"CC1(C)[C@@H](c2ccc(S(N)(=O)=O)nc2)[C@@H]1c1noc(C2CCCC2)n1 (racemic) [Example C2, 5-[trans-3-(5-Cyclopentyl-1,2,4-oxadiazol-3-yl)-2,2-dimethylcyclopropyl]pyridine-2-sulfonamide]",920,500 to 5000
"CC1(C)C(c2ccc(S(N)(=O)=O)nc2)C1c1cc(-c2cccc(F)c2)no1 (racemic) [Example C3, 5-{trans-3-[3-(3-Fluorophenyl)isoxazol-5-yl]-2,2-dimethylcycpropyl}pyridine-2-sulfonamide]",430,100 to 500
"CC1(C)C(c2ccc(S(N)(=O)=O)nc2)C1c1nc2ccccc2o1 (racemic) [Example C4, 5-[trans-3-(1,3-Benzoxazol-2-yl)-2,2-dimethylcyclopropyl]pyridine-2-sulfonamide]",5100,5000 to 50000
"NS(=O)(=O)c1ccc(C2CC2c2nc(-c3ccccc3)no2)cn1 (racemic) [Example C5, 5-[trans-2-(3-Phenyl-1,2,4-oxadiazol-5-yl)cyclopropyl]pyridine-2-sulfonamide]",1100,500 to 5000
"CC1(C)[C@@H](c2ccc(S(N)(=O)=O)nc2)[C@@H]1c1nc(-c2ccccc2)no1 (racemic) [Example C6, 5-[trans-2,2-Dimethyl-3-(3-phenyl-1,2,4-oxadiazol-5-yl)cyclopropyl]pyridine-2-sulfonamide]",,500 to 5000
"NS(=O)(=O)c1ccc([C@@H]2C[C@H]2c2nc(-c3cccc(F)c3)no2)cn1 (racemic) [Example C8, 5-{trans-2-[3-(3-Fluorophenyl)-1,2,4-oxadiazol-5-yl]cyclopropyl}pyridine-2-sulfonamide]",390,100 to 500
"NS(=O)(=O)c1ccc([C@@H]2C[C@H]2c2nc(C3CCCC3)no2)cn1 (racemic) [Example C9, 5-[trans-2-(3-Cyclopentyl-1,2,4-oxadiazol-5-yl)cyclopropyl]pyridine-2-sulfonamide]",,500 to 5000
"CC1(C)[C@@H](c2ccc(S(N)(=O)=O)nc2)[C@@H]1c1noc(C2CCCCC2)n1 (racemic) [Example C10, 5-[trans-3-(5-Cyclohexyl-1,2,4-oxadiazol-3-yl)-2,2-dimethylcyclopropyl]pyridine-2-sulfonamide]",2100,500 to 5000
"CC1(C)[C@@H](c2ccc(S(N)(=O)=O)nc2)[C@@H]1c1noc(C2(C(F)(F)F)CC2)n1 (racemic) [Example C11, 5-(trans-2,2-Dimethyl-3-{5-[1-(trifluoromethyl)cyclopropyl]-1,2,4-oxadiazol-3-yl}cyclopropyl)pyridine-2-sulfonamide]",1500,500 to 5000
"CC1(C)[C@@H](c2ccc(S(N)(=O)=O)nc2)[C@@H]1c1noc(-c2c(F)cccc2F)n1 (racemic) [Example C12, 5-{trans-3-[5-(2,6-Difluorophenyl)-1,2,4-oxadiazol-3-yl]-2,2-dimethylcyclopropyl}pyridine-2-sulfonamide]",1200,500 to 5000
"CC1(C)[C@@H](c2ccc(S(N)(=O)=O)cn2)[C@@H]1c1nc(-c2ccccc2)no1 (racemic) [Example G2, 6-[trans-2,2-Dimethyl-3-(3-phenyl-1,2,4-oxadiazol-5-yl)cyclopropyl]pyridine-3-sulfonamide]",970,500 to 5000

# The next lines start with the values.
EC50 (read-out: α7 nAChR EC50) [nM],EC50 (read-out: α7 nAChR Potency) [nM],Molecule
2000,500 to 5000,"CC1(C)[C@@H](c2nc3ccccc3o2)[C@@H]1c1ncc(S(N)(=O)=O)s1 (racemic) [Example D1, 2-[trans-3-(1,3-Benzoxazol-2-yl)-2,2-dimethylcyclopropyl]-1,3-thiazole-5-sulfonamide]"
1200,500 to 5000,"CC1(C)[C@@H](c2nc(C3CCC3)no2)[C@@H]1c1ncc(S(N)(=O)=O)s1 (racemic) [Example D2, 2-[trans-3-(3-Cyclobutyl-1,2,4-oxadiazol-5-yl)-2,2-dimethylcyclopropyl]-1,3-thiazole-5-sulfonamide]"
1600,500 to 5000,"CC1(C)[C@@H](c2nc(-c3cncc(F)c3)no2)[C@@H]1c1ncc(S(N)(=O)=O)s1 (racemic) [Example D3, 2-{trans-3-[3-(5-Fluoropyridin-3-yl)-1,2,4-oxadiazol-5-yl]-2,2-dimethylcyclopropyl}-1,3-thiazole-5-sulfonamide]"
360,100 to 500,"CC1(C)[C@@H](c2nc(-c3ccccc3)no2)[C@@H]1c1ncc(S(N)(=O)=O)s1 (racemic) [Example D4, 2-[trans-2,2-Dimethyl-3-(3-phenyl-1,2,4-oxadiazol-5-yl)cyclopropyl]-1,3-thiazole-5-sulfonamide]"
4200,500 to 5000,"CC(C)c1noc([C@H]2[C@H](c3ncc(S(N)(=O)=O)s3)C2(C)C)n1 (racemic) [Example D5, 2-{trans-2,2-Dimethyl-3-[3-(propan-2-yl)-1,2,4-oxadiazol-5-yl]cyclopropyl}-1,3-thiazole-5-sulfonamide]"
,5000 to 50000,"CC1(C)[C@@H](c2nc(C3CC(F)(F)C3)no2)[C@@H]1c1ncc(S(N)(=O)=O)s1 (racemic) [Example D6, 2-{trans-3-[3-(3,3-Difluorocyclobutyl)-1,2,4-oxadiazol-5-yl]-2,2-dimethylcyclopropyl}-1,3-thiazole-5-sulfonamide]"
1200,500 to 5000,"COc1ccc(Cl)cc1-c1noc([C@H]2[C@H](c3ncc(S(N)(=O)=O)s3)C2(C)C)n1 (racemic) [Example D7, 2-{trans-3-[3-(5-Chloro-2-methoxyphenyl)-1,2,4-oxadiazol-5-yl]-2,2-dimethylcyclopropyl}-1,3-thiazole-5-sulfonamide]"
1000,500 to 5000,"NS(=O)(=O)c1cnc([C@@H]2C[C@H]2c2nc(-c3ccccc3)no2)s1 (racemic) [Example D8, 2-[trans-2-(3-Phenyl-1,2,4-oxadiazol-5-yl)cyclopropyl]-1,3-thiazole-5-sulfonamide]"
,500 to 5000,"CC(C)c1noc([C@H]2[C@H](c3ccc(S(N)(=O)=O)cn3)C2(C)C)n1 (racemic) [Example G3, 6-{trans-2,2-Dimethyl-3-[3-(propan-2-yl)-1,2,4-oxadiazol-5-yl]cyclopropyl}pyridine-3-sulfonamide]"
,500 to 5000,"CC1(C)[C@@H](c2ccc(S(N)(=O)=O)cn2)[C@@H]1c1nc(C2CCC2)no1 (racemic) [Example G4, 6-[trans-3-(3-Cyclobutyl-1,2,4-oxadiazol-5-yl)-2,2-dimethylcyclopropyl]pyridine-3-sulfonamide]"
3600,500 to 5000,"CC1(C)[C@@H](c2ccc(S(N)(=O)=O)cn2)[C@@H]1c1nc(C2CC(F)(F)C2)no1 (racemic) [Example G5, 6-{trans-3-[3-(3,3-Difluorocyclobutyl)-1,2,4-oxadiazol-5-yl]-2,2-dimethylcyclopropyl}pyridine-3-sulfonamide]"
1300,500 to 5000,"NS(=O)(=O)c1ccc([C@@H]2C[C@H]2c2nc(-c3ccccc3)no2)nc1 (racemic) [Example G6, 6-[trans-2-(3-Phenyl-1,2,4-oxadiazol-5-yl)cyclopropyl]pyridine-3-sulfonamide]"
